Earlier results as cited in patent publication US20160199437A1, “THERAPEUTIC COMPOSITIONS INCLUDING IRON CHELATORS AND USES THEREOF” (priority 2015, published 2016).

Tested on: several mammalian cell types
Settings: energy-independent manner; cited from earlier work

In the case of 2′,6′-Dmt-D-Arg-Phe-Lys-NH2, the “penetration of the plasma membrane” value is listed as “readily penetrates the plasma membrane”.
